From the supplement of paper PMC10307832

Experiments:
Test in all cases: relative viability (nuclei count vs DMSO), 5 days (fraction); higher = more cells survive
Mirin + Pemetrexed = compound: N=C1NC(=O)/C(=C/c2ccc(O)cc2)S1 [Mirin] + Nc1nc2[nH]cc(CCc3ccc(C(=O)N[C@@H](CCC(=O)O)C(=O)O)cc3)c2c(=O)[nH]1 [Pemetrexed] (partner 0.2 µM)
Summary of the method: (§1)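 Lung cancer cell lines were seeded in 1536-well plates and dosed by pin tool the next day, with either a single drug or a fixed anchor-drug dose combined with five library-drug doses (not always all listed) spaced in √10 steps. Five days later, one step fixed the cells and stained their nuclei (final 0.05% Triton X-100, 1% formaldehyde, 1 ug/ml Hoechst), and nuclei were counted on 4× images. Relative viability is the nuclei count in treated wells divided by the count in vehicle wells, and each value is the median of duplicate plates.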

Mirin + Navitoclax = compound: N=C1NC(=O)/C(=C/c2ccc(O)cc2)S1 [Mirin] + CC1(C)CCC(c2ccc(Cl)cc2)=C(CN2CCN(c3ccc(C(=O)NS(=O)(=O)c4ccc(N[C@H](CCN5CCOCC5)CSc5ccccc5)c(S(=O)(=O)C(F)(F)F)c4)cc3)CC2)C1 [Navitoclax] (partner 0.5 µM)
Summary of the method: as §1

Mirin + Dasatinib = compound: N=C1NC(=O)/C(=C/c2ccc(O)cc2)S1 [Mirin] + Cc1nc(Nc2ncc(C(=O)Nc3c(C)cccc3Cl)s2)cc(N2CCN(CCO)CC2)n1 [Dasatinib] (partner 0.075 µM)
Summary of the method: as §1

Mirin + Foretinib = compound: N=C1NC(=O)/C(=C/c2ccc(O)cc2)S1 [Mirin] + COc1cc2c(Oc3ccc(NC(=O)C4(C(=O)Nc5ccc(F)cc5)CC4)cc3F)ccnc2cc1OCCCN1CCOCC1 [Foretinib] (partner 0.25 µM)
Summary of the method: as §1

| Cell Line | relative viability (Mirin + Pemetrexed; first compound 0.25 µM) | relative viability (Mirin + Pemetrexed; first compound 0.7906 µM) | relative viability (Mirin + Pemetrexed; first compound 2.5 µM) | relative viability (Mirin + Pemetrexed; first compound 7.906 µM) | relative viability (Mirin + Pemetrexed; first compound 25 µM) | relative viability (Mirin + Navitoclax; first compound 0.25 µM) | relative viability (Mirin + Navitoclax; first compound 2.5 µM) | relative viability (Mirin + Navitoclax; first compound 7.906 µM) | relative viability (Mirin + Navitoclax; first compound 25 µM) | relative viability (Mirin + Dasatinib; first compound 0.25 µM) | relative viability (Mirin + Dasatinib; first compound 0.7906 µM) | relative viability (Mirin + Dasatinib; first compound 2.5 µM) | relative viability (Mirin + Dasatinib; first compound 7.906 µM) | relative viability (Mirin + Dasatinib; first compound 25 µM) | relative viability (Mirin + Foretinib; first compound 0.25 µM) | relative viability (Mirin + Foretinib; first compound 0.7906 µM) | relative viability (Mirin + Foretinib; first compound 2.5 µM) | relative viability (Mirin + Foretinib; first compound 7.906 µM) | relative viability (Mirin + Foretinib; first compound 25 µM) | relative viability (Mirin + Navitoclax; first compound 0.7906 µM) |
| --- | --- | --- | --- | --- | --- | --- | --- | --- | --- | --- | --- | --- | --- | --- | --- | --- | --- | --- | --- | --- |
| NCI-H647 | 0.198 | 0.161 | 0.146 | 0.172 | 0.111 | 1.05 | 1.06 | 1.11 | 1.08 | 0.152 | 0.177 | 0.216 | 0.174 | 0.132 | 1.4 | 1.27 | 1.14 | 1.32 | 0.946 |  |
| NCI-H838 | 0.235 | 0.259 | 0.258 | 0.236 | 0.188 | 1.19 | 1.31 | 1.19 | 1.11 | 0.275 | 0.277 | 0.309 | 0.394 | 0.346 | 1.05 | 1.08 | 1.08 | 1 | 0.852 | 1.24 |
| NCI-H1355 | 1.06 | 1.09 | 1.08 | 1 | 1.11 | 1 | 1.07 | 0.897 | 0.979 | 0.766 | 0.724 | 0.691 | 0.564 | 0.648 | 0.67 | 1 | 0.967 | 0.971 | 0.918 | 0.989 |
| NCI-H1395 | 0.898 |  | 0.847 | 0.829 | 0.618 | 1.24 | 1.12 | 1.04 | 1.09 | 0.439 | 0.434 | 0.429 | 0.376 | 0.418 | 0.908 | 0.994 | 1.03 | 0.977 | 1.14 |  |
| NCI-H1437 | 0.313 | 0.351 | 0.377 | 0.345 | 0.31 | 1.09 | 1.12 | 1.07 | 1.05 | 0.405 | 0.41 | 0.386 | 0.309 | 0.347 | 1.31 | 1.31 | 1.22 | 1.2 | 1.19 | 1.09 |
| NCI-H1650 | 0.339 | 0.382 | 0.377 | 0.324 | 0.359 | 1.05 | 1.21 | 1.21 | 1.06 | 0.307 | 0.294 | 0.306 | 0.256 | 0.231 | 1.22 | 1.11 | 0.968 | 1.43 | 0.782 | 1.53 |
| NCI-H1651 | 0.241 | 0.532 | 0.599 | 0.532 | 0.612 | 1.01 | 1.01 | 0.826 | 0.836 | 0.417 | 0.382 | 0.501 | 0.355 | 0.376 | 0.814 | 0.845 | 0.773 | 0.678 | 0.69 | 0.97 |
| NCI-H1666 | 0.821 | 0.805 | 0.827 | 0.875 | 0.841 | 0.921 | 1.03 | 0.719 | 0.59 | 0.93 | 0.807 | 0.846 | 0.709 | 0.681 | 0.963 | 1.03 | 1.04 | 0.941 | 0.836 | 0.941 |
